# According to paper PMC12040169 (PLOS Biology, 2025):
# Experiment: in vitro
# Conditions: human, hela cells, % viability
SMILES,"viability at 28.5 h, 10 µM [%]","viability at 28.5 h, 10 µM (bulk resorufin, single well) [%]"
Cn1c2c(c(=O)n(C)c1=O)[C@@H]1C(C[C@](O)(COCc3ccccc3)[C@H]1O)C1(CCC1)N2 (stereo partly shown) [CBK303265],116,–
Cc1ccc(S(=O)(=O)Nc2ccccc2C(N)=O)cc1 [CBK056893],76,–
CC(C)N1CC[C@@H]2[C@H]1C(=O)NC[C@H](CCC(=O)Nc1ccccc1)N2C [CBK289030],86.1,–
CCC(CC)C(=O)Nc1ccc([C@@H](O)[C@H]2COCC(=O)N2Cc2ccc(OC)cc2)cc1 [CBK289677],102,–
CCOC(=O)C(C)n1nc(C)n2c(cc3sccc32)c1=O (stereo not shown) [CBK283333],67,–
c1ccc2c(c1)nnn2CNCn1nnc2ccccc21 [CBK261114],85.4,–
CC(C)[C@H]1CN(Cc2ccco2)CCN1Cc1ccco1 [CBK284271],79.3,–
COc1ccc(-c2ccccc2CC2(C(=O)NCc3cccs3)CCOCC2)cc1 [CBK286429],92.3,–
Nc1cc2ccccc2c(-c2cccc(C(F)(F)F)c2)n1 [CBK085721],101,–
O=C(CCSS(=O)(=O)O)N1CCc2ccccc21 [CBK260892N],94.4,–
CCc1ccc(OC(C)c2nnc(SCC(=O)N3c4ccccc4Sc4ccccc43)n2C)cc1 (stereo not shown) [CBK268058],92.3,–
Cc1cc(S)n2nc(C)c(-c3ccccc3)c2n1 [CBK288423],99,–
CC1(C)CC(=O)C(=CNCCCn2ccnc2)C(=O)C1 [CBK261686],91.3,–
COc1cccc(/C=C2/NC(=O)N(c3cccc(Cl)c3)C2=O)c1OCc1cccc(C(=O)O)c1 [CBK265626],109,–
CCOC(=O)c1c(CSc2ccc(Cl)cc2)n(C)c2cc(Br)c(O)c(CN(C)C)c12 [CBK217489C],108,–
COc1ccc(NC(=O)CSc2ncnc3ccccc23)cc1 [CBK270215],94,–
C=C(C)CNC(=O)c1cc(-c2cccc(NC(C)=O)c2)cnc1N(C)S(C)(=O)=O [CBK076622],93.9,–
O=C(O)CCCOc1nc(C2CC2)cc(C(F)(F)F)n1 [CBK286886],92,–
Cc1c(C(=O)Nc2nccs2)nnn1-c1ccccc1 [CBK287766],83.9,–
Cc1ccccc1C(=O)Nc1ccc(F)c(F)c1 [CBK058249],96.1,–
CCCCC(c1cccnc1)N(C)C(=O)c1cccn(C)c1=O (stereo not shown) [CBK307496],114,–
CC(=O)c1ccc(-c2nccnc2NCc2ccc(C(F)(F)F)cc2)s1 [CBK037983],99.2,–

SMILES,"viability at 28.5 h, 10 µM [%]","viability at 28.5 h, 10 µM (bulk resorufin, single well) [%]"
Nc1nc(=O)c2cnc3c(Cl)cccc3c2s1 [CBK291229],89.5,–
Cc1cc(C(=O)N(C)CC2(C)COC2)nc2ccccc12 [CBK281956],90.2,–
Cn1cc(CCCCNC(=O)Cc2c[nH]c3ccc(Cl)cc23)cn1 [CBK306364],76,–
COc1ccccc1Cc1cccc(C2CCN(C(=O)c3ccc(F)cc3)CC2)n1 [CBK286237],108,–
Cc1cccc(CCNC(=O)C2CN(C(=O)C3CCN(C)CC3)C2)c1 [CBK281967],98.4,–
CCOc1ccc(S(=O)(=O)N2CCCN(Cc3ccc(C#N)cc3)CC2)c2cccnc12 [CBK062759],107,–
COc1ccc(S(=O)(=O)N2CCC(C(=O)O)(c3ccccc3)CC2)cc1 [CBK267572],94.3,–
CCn1c(SCC(=O)NC2CC2)nc2ccccc21 [CBK305864],117,–
O=C(CN(c1cc(Cl)ccc1Cl)S(=O)(=O)c1ccccc1)Nc1cccnc1 [CBK268708],59.3,–
CN(CCC#N)S(=O)(=O)c1ccc(OC(F)(F)F)cc1 [CBK044415],88.1,–
CC(C)Oc1ncc(C(=O)NCCCC(=O)O)cc1Cl [CBK305192],107,–
C[C@@H](Cn1nnc2ccccc21)NC(=O)c1cccs1 [CBK284322],82.3,–
Cc1cc(C)n(CC(C)CNC(=O)Cc2csc(C(C)(C)C)n2)n1 (stereo not shown) [CBK305340],96.1,–
Cn1nccc1C(=O)NC(Cc1ccsc1)c1cccnc1 (stereo not shown) [CBK285394],98.6,–
O=C(CN1CCCC2(CCN(C(=O)Cc3c[nH]c4ccccc34)C2)C1)Nc1ccc(F)c(Cl)c1 (stereo not shown) [CBK132047],108,–
CC(C)c1ccc(/C=C/C(=O)NCc2ccc3occc3c2)cc1 [CBK149620],93.3,–
CS(=O)(=O)N1CC2(CCN(CCOCc3ccccc3)CC2)c2ccccc21 [CBK115458T],96.4,–
COc1ccc(Sc2nc(SC)nc(-c3ccccc3)c2C#N)cc1 [CBK291212],94,–
COc1cc(-c2cnc3cccnc3c2N)cc(OC)c1OC [CBK081190],93.1,–
O=S(=O)(Nc1ccc(C(O)(C(F)(F)F)C(F)(F)F)cc1)c1ccc(Cl)c(Cl)c1 [CBK062102],111,–
CC1(NC(=O)CC[N+]23CCN(CC2)CC3)CS(=O)(=O)CC1S(=O)(=O)[O-] (stereo not shown) [CBK262518],92,–
Cc1ccccc1NC(=O)Cn1cnc2c(cnn2-c2ccccc2)c1=O [CBK287530],104,–

SMILES,"viability at 28.5 h, 10 µM [%]","viability at 28.5 h, 10 µM (bulk resorufin, single well) [%]"
O=C(NCC1Cc2ccccc2O1)c1cccc(NC(=O)c2ccco2)c1 (stereo not shown) [CBK298302],83.3,–
CC(=O)N(C)[C@H]1CC[C@]2(CC1)CNC(=O)c1cc(C)ccc1O2 [CBK281690],101,–
COc1cc(NS(=O)(=O)c2cc(C(=O)O)c(Cl)cc2Cl)cc(OC)c1 [CBK113162],98.9,–
CS(=O)(=O)N1CC2(CCN(Cc3nc4ccccc4[nH]3)CC2)c2ccccc21 [CBK126672],89.2,–
O=C(C(c1ccccc1)c1ccccc1)N1CCC2(CCNC2)C1 (stereo not shown) [CBK156729C],92.3,–
Cc1ccc(NC(=O)c2ccccc2NS(=O)(=O)c2ccc(C(C)C)cc2)cc1 [CBK113800],77.8,–
CC(C)Oc1ncc(C(=O)N(CCC#N)Cc2ccco2)cc1Cl [CBK304908],91.6,–
Cc1cc(C)n(-c2nc3ccccc3nc2N2CCN(S(=O)(=O)c3ccc(F)c(C)c3)CC2)n1 [CBK268508],91.1,–
CCCCCc1nnc(NC(=O)c2cccs2)s1 [CBK058382],103,–
O=C(Cn1ncc2cccn2c1=O)Nc1cccc(F)c1 [CBK283702],89.8,–
COc1ccc(CN2CCN(Cc3cccnc3)CC2)cc1OC [CBK074409G],94.1,–
COc1ccccc1-c1nccnc1OCc1ccccc1 [CBK106817],108,–
O=C(CCc1ccccc1)Nc1cccc2nsnc12 [CBK265680],85.3,–
CC1(C)OC(=O)C(=CNC(CCC(=O)O)C(=O)O)C(=O)O1 (stereo not shown) [CBK263510],97.3,–
COc1ccc(Cn2c(=O)n(S(=O)(=O)c3ccc(-c4cc(C(F)(F)F)n(C)n4)s3)c3ccccc32)cc1 [CBK106552],97.7,–
CN1CCOc2cc(S(=O)(=O)Nc3nnn[nH]3)ccc21 [CBK062389],99.1,–
COC1C(O)C(CO)OC1n1cnc2c(=O)[nH]cnc21 (stereo not shown) [CBK201328],91.3,–
C#CCNC(=O)[C@H]1O[C@H](CCN2CCCCC2)CC[C@@H]1O [CBK288728],101,–
Cc1cc(COC(=O)N2CCSCC2)cc(C)n1 [CBK200153],107,–
CC(C)c1ccc(C(C)NC(=O)Cn2cccc(C(=O)Nc3ccc(F)cc3)c2=O)cc1 (stereo not shown) [CBK286043],89.3,–
O=C(O)CC(Cc1ccc(Cl)cc1)C(=O)Nc1ccc([N+](=O)[O-])cc1 (stereo not shown) [CBK261973],89.7,–
COc1ccc2nc(NC(=O)c3ccc(Br)s3)sc2c1 [CBK287316],92.8,–

SMILES,"viability at 28.5 h, 10 µM [%]","viability at 28.5 h, 10 µM (bulk resorufin, single well) [%]"
Cc1ccccc1C(=O)NC(NC(=S)Nc1sc2c(c1C(N)=O)CCCC2)C(Cl)(Cl)Cl (stereo not shown) [CBK261047],97.9,–
C=CCNc1nccnc1-c1cccc(O)c1 [CBK088505],88.2,–
O=C(Nc1ccccc1-n1ccnc1)c1ncoc1-c1ccc(F)cc1 [CBK282417],94.1,–
O=C(C1CC1)N1C[C@H]2CCCN(S(=O)(=O)c3cccs3)[C@H]2C1 [CBK282255],105,–
COc1ccc2ccccc2c1[S+]([O-])NC1CCCCC1 (stereo not shown) [CBK022400],80.7,–
Cc1cc(S(=O)(=O)NC(=O)CC2CCOc3ccccc32)c(C)o1 (stereo not shown) [CBK304499],105,–
c1ccc(C(NCc2cnc(C3CCC3)s2)C2CCCC2)nc1 (stereo not shown) [CBK304022],88.6,–
C=CCn1c(Cc2csc(NC(=O)c3cc(S(=O)(=O)NC)ccc3C)n2)n[nH]c1=S [CBK297903],105,–
O=C(NC1CCN(CC(F)(F)F)CC1)c1cnc(-c2ccccc2)s1 [CBK305474],98.4,–
c1ccc(CCN2CCC(n3cnc4cccnc43)CC2)cc1 [CBK283581],88.5,–
NS(=O)(=O)c1ccc(C(=O)Nc2cccc3cc[nH]c23)cc1 [CBK160094],94.8,–
CC(=O)Nc1ccc(-c2cccc(COC3CCN(C(=O)Cc4ccc(Cl)c(Cl)c4)CC3)c2)cc1 [CBK149487],109,–
O=S(=O)(c1ccccc1)C1CCCCO1 (stereo not shown) [CBK020284],91.3,–
CSc1cc(C)c2c(c1)COC1(CCN(C(=O)Nc3c(C)noc3C)CC1)O2 [CBK060699],–,95.3
O=C(O)c1ccc(N2C(=O)CC(c3ccccc3)CC2=O)cc1 [CBK291169],87.3,–
Cc1ccc(C(=O)Nc2ccccc2C(=O)O)cc1S(=O)(=O)NCc1ccccc1 [CBK263212],98.7,–
COc1cccc2c(C(C(=O)O)N3CCN(c4ccc(C(F)(F)F)cn4)CC3)c[nH]c12 (stereo not shown) [CBK286857],89.7,–
CCCCC(=O)NCCc1ccc(S(N)(=O)=O)cc1 [CBK288360],91.5,–
C=CCn1c(Cc2csc(NC(=O)c3ccc(OC(F)F)cc3)n2)n[nH]c1=S [CBK295338],100,–
OCC1CCN(Cc2ccc(OC3CCCC3)cc2)C1 (stereo not shown) [CBK282929],99.5,–
Cc1c(-c2ccccc2)n[nH]c1C(=O)NCCCc1ccccn1 [CBK282445],89,–
Cc1cccnc1C(NC(=O)C1CCN(C/C=C/c2ccco2)CC1)c1ccc(Cl)cc1 (stereo not shown) [CBK148201],90,–
